Consider 8 compounds from ChEMBL document CHEMBL1146611, “Design and synthesis of novel pyrrolidine-containing bradykinin antagonists” (Bioorg Med Chem Lett, 2003).

In assay [1] the target is T1, B1 bradykinin receptor (Homo sapiens) (UniProt P46663).
T1 sequence (whole entry): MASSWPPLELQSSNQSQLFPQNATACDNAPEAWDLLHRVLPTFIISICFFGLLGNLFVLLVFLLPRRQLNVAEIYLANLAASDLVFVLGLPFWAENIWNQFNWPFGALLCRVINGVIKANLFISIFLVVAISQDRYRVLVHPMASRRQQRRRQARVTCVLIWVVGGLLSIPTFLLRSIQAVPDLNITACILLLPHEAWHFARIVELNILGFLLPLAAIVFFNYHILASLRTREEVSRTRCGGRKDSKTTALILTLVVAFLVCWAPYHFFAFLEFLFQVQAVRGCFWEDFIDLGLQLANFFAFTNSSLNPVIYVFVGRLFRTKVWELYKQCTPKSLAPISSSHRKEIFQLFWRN
As to the kind of experiment: In vitro binding affinity against Bradykinin receptor B1 at 1 uM concentration.

In assay [2] the target is T2, B2 bradykinin receptor (Homo sapiens) (UniProt P30411).
T2 sequence (whole entry): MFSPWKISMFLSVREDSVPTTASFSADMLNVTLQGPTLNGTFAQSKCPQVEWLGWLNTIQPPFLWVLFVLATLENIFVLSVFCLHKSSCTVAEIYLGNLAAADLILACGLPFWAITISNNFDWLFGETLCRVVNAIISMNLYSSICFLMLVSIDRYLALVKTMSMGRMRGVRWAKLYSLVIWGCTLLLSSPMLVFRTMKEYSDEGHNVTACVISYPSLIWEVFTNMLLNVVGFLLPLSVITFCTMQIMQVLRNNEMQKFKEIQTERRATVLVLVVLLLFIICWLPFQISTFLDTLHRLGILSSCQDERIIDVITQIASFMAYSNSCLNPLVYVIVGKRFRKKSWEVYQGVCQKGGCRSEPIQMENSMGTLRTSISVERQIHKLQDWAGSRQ
As to the kind of experiment: In vitro binding affinity against Bradykinin receptor B2 at 1 uM concentration.

Another assay has as its target T3, B2 bradykinin receptor (Homo sapiens, UniProt P30411).
T3 sequence (P30411 whole entry): T2 sequence (whole entry)
As to the kind of experiment: In vitro binding affinity against Bradykinin receptor B2.

The inhibition is the drop in the measured response relative to a control, in per cent. Regarding `Cc1ccc2cccc(OCc3c(C)ccc(N4CCC[C@@H]4CN4C(=O)c5ccccc5C4=O)c3C)c2n1`, the inhibition in assay [1] is 1%; in assay [2], 8%.

By Ki is commonly meant the dissociation constant of the complex between target and ligand, obtained from inhibition or displacement. A lower Ki goes with a stronger hold on the target. For the compound `CC(=O)Nc1ccc(/C=C/C(=O)NC[C@@H]2CCCN2c2ccc(C)c(COc3cccc4ccc(C)nc34)c2C)cn1`, the inhibition in assay [1] worked out at 1%; in assay [2] it was 84%. Besides, the Ki on B2 bradykinin receptor stood at 33 nM.

`CC(=O)Nc1ccc(/C=C/C(=O)NC[C@H]2CCCN2c2ccc(C)c(COc3cccc4ccc(C)nc34)c2C)cn1`: the inhibition turned out to be 1% in assay [1] and 76% in assay [2]. Moreover, the Ki at B2 bradykinin receptor came to 46 nM.

In the case of `Cc1ccc2cccc(OCc3c(C)ccc(N4CCC[C@H]4CN4C(=O)c5ccccc5C4=O)c3C)c2n1`, the inhibition in assay [1] amounted to 5%; in assay [2], 8%.

Turning to `Cc1ccc2cccc(OCc3c(C)ccc(N4CCC[C@H]4C(=O)O)c3C)c2n1`, the inhibition stood at 6% in assay [1] and 19% in assay [2].

Take `Cc1ccc2cccc(OCc3c(C)ccc(N4CCC[C@H]4CO)c3C)c2n1`: the inhibition in assay [1] stood at 1%; in assay [2], 19%.

As for `Cc1ccc2cccc(OCc3c(C)ccc(N4CCC[C@@H]4C(=O)O)c3C)c2n1`, the values for the inhibition in assay [1] and in assay [2] were 1% and 11%, respectively.

Regarding `Cc1ccc2cccc(OCc3c(C)ccc(N4CCC[C@@H]4CO)c3C)c2n1`, the inhibition in assay [1] was 9%; in assay [2] it was 12%.
